In patent US20120190635A1, “SELECTIVE OXIDATION OF C-H BONDS OF MODIFIED SUBSTRATES BY P450 MONOOXYGENASE” (THE REGENTS OF THE UNIVERSITY OF MICHIGAN, priority 2009, published 2012):
Converted amounts (≈) assume the structure as drawn.

How the values were obtained:
[1] = system: Kocuria rhizophila ATCC9341; assay: antibacterial MIC, microtiter dilution; conditions: for MIC: Kocuria rhizophila, ATCC9341, read-out: Minimal inhibitory concentration; for Minimal inhibitory concentration: Kocuria rhizophila ATCC9341, Nutrient broth
[2] = system: S. aureus NorA; assay: antibacterial MIC, microtiter dilution; conditions: for MIC: Staphylococcus aureus, read-out: Minimal inhibitory concentration; for Minimal inhibitory concentration: S. aureus 8325 NorA disruption mutant, Mueller Hinten
[3] = system: Deinococcus radiodurans; assay: antibacterial MIC, microtiter dilution; conditions: 60 h; for Minimal inhibitory concentration: Special media, 30° C.; for MIC: read-out: Minimal inhibitory concentration, Deinococcus radiodurans, Special media, 30° C.
[4] = system: Acinetobacter baumannii; assay: antibacterial MIC, microtiter dilution; conditions: for MIC: read-out: Minimal inhibitory concentration; for Minimal inhibitory concentration: Mueller Hinten
[5] = system: Bacillus subtillis DHS5333; assay: antibacterial MIC, microtiter dilution; conditions: for MIC: Bacillus, DHS5333, read-out: Minimal inhibitory concentration; for Minimal inhibitory concentration: Bacillus subtillis DHS5333, LB
[6] = system: Multidrug resistant S. aureus (MRSA); assay: antibacterial MIC, microtiter dilution; conditions: for MIC: Staphylococcus aureus, MRSA, read-out: Minimal inhibitory concentration; for Minimal inhibitory concentration: Multidrug resistant S. aureus (MRSA), Mueller Hinten
[7] = system: Staphylococcus aureus ATCC6538P; assay: antibacterial MIC, microtiter dilution; conditions: for MIC: Staphylococcus aureus, ATCC6538P, read-out: Minimal inhibitory concentration; for Minimal inhibitory concentration: Staphylococcus aureus ATCC6538P, LB
[8] = system: Escherichia. coli TolC; assay: antibacterial MIC, microtiter dilution; conditions: Mueller Hinten; for MIC: Escherichia coli, read-out: Minimal inhibitory concentration, E. coli W3110 TolC disruption mutant; for Minimal inhibitory concentration: E. coli W3110 TolC disruption mutant
[9] = target: PikCD50N-RhFRED (Streptomyces venezuelae, UniProt O87605, D50N); assay type: biochemical; conditions: for Number of products: Table 1
Chain of PikCD50N-RhFRED (O87605 other isoform, or with tags, fused parts or gaps D50N): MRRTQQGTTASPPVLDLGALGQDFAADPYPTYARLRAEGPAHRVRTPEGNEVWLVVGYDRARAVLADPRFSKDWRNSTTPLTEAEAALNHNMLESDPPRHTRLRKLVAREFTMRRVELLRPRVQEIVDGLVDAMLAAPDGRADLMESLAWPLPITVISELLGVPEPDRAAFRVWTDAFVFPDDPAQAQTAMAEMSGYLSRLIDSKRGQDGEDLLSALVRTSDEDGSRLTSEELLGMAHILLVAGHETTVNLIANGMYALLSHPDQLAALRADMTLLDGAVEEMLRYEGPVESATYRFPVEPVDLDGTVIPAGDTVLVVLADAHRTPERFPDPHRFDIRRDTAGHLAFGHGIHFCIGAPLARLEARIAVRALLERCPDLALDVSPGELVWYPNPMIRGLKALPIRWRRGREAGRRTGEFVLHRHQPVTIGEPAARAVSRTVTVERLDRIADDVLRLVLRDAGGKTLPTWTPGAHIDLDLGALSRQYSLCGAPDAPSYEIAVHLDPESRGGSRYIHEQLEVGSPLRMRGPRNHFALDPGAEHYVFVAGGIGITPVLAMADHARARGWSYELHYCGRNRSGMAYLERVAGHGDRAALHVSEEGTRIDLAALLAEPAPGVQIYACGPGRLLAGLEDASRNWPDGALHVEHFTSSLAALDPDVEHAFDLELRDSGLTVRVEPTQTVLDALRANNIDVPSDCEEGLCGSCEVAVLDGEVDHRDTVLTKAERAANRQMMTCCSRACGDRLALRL

Row | SMILES | MIC [1] [µM] | MIC [2] [µM] | Minimal inhibitory concentration [3] [µM] | MIC [4] [µM] | MIC [5] [µM] | MIC [6] [µM] | MIC [7] [µM] | MIC [8] [µM] | Minimal inhibitory concentration [1] [µM] | Minimal inhibitory concentration [2] [µM] | Minimal inhibitory concentration [4] [µM] | Minimal inhibitory concentration [5] [µM] | Minimal inhibitory concentration [6] [µM] | Minimal inhibitory concentration [7] [µM] | Minimal inhibitory concentration [8] [µM] | Number of products ([9]; PikCD50N-RhFRED) | MIC [3] [µM] | yield and selectivity (number of product peaks) relative to 12 ([9]; PikCD50N-RhFRED) | hydroxylation by PikC / ability to serve as substrate, in words [9]
1 | C[C@@H]1C[C@H](N(C)C)[C@@H](O)[C@H](OC2CCCCCCC(O)CCCCC2)O1 (single isomer, unassigned) [Compound 8-C7OH-a] | > 400 | > 400 | 400 (≈ 149 µg/mL) | > 400 | > 400 | > 400 | > 400 | > 400 |  |  |  |  |  |  |  |  |  |  | 
2 | C[C@@H]1C[C@H](N(C)C)[C@@H](O)[C@H](OC2CCCCCCC(O)CCCCC2)O1 (single isomer, unassigned) [Compound 8-C7OH-b] |  |  | 100 (≈ 37.2 µg/mL) |  |  |  |  |  | >400 | >400 | >400 | >400 | >400 | >400 | 400 (≈ 149 µg/mL) |  |  |  | 
3 | CC[C@H]1OC(=O)[C@H](C)[C@@H](O[C@@H]2OC(C)CC(C)C2C)[C@@H](C)C[C@@H](C)C(=O)/C=C/[C@H]1C (stereo partly drawn) [Compound 1, YC-17, reference compound] | 100 (≈ 42.3 µg/mL) | 100 (≈ 42.3 µg/mL) |  | > 400 | 100 (≈ 42.3 µg/mL) | > 400 | 100 (≈ 42.3 µg/mL) | 100 (≈ 42.3 µg/mL) |  |  |  |  |  |  |  | 2 | 400 (≈ 169 µg/mL) |  | 
4 | CC[C@H]1OC(=O)[C@H](C)[C@@H](O[C@@H]2O[C@H](C)C[C@H](N(C)C)[C@H]2O)[C@@H](C)C[C@@H](C)C(=O)/C=C/[C@]1(C)O [Compound 2, methymycin, reference compound] | 50 (≈ 23.5 µg/mL) | 100 (≈ 47 µg/mL) |  | > 400 | 100 (≈ 47 µg/mL) | > 400 | 100 (≈ 47 µg/mL) | 50 (≈ 23.5 µg/mL) |  |  |  |  |  |  |  |  | 200 (≈ 93.9 µg/mL) |  | 
5 | CC[C@H]1OC(=O)[C@H](C)C(=O)[C@H](C)[C@@H](O[C@@H]2O[C@H](C)C[C@H](N(C)C)[C@H]2O)[C@@H](C)C[C@@H](C)C(=O)/C=C/[C@H]1C [Compound 4, narbomycin, reference compound] |  |  | 100 (≈ 51 µg/mL) |  |  |  |  |  | <3.1 | 3.1 (≈ 1.58 µg/mL) | >400 | <3.1 | >400 | 6.2 (≈ 3.16 µg/mL) | 25 (≈ 12.7 µg/mL) |  |  |  | 
6 | CC[C@H]1OC(=O)[C@H](C)C(=O)[C@H](C)[C@@H](O[C@@H]2O[C@H](C)C[C@H](N(C)C)[C@H]2O)[C@@H](C)C[C@@H](C)C(=O)/C=C/[C@]1(C)O [Compound 5, pikromycin, reference compound] |  |  | 100 (≈ 52.6 µg/mL) |  |  |  |  |  | 6.2 (≈ 3.26 µg/mL) | 12.5 (≈ 6.57 µg/mL) | >400 | 12.5 (≈ 6.57 µg/mL) | >400 | 25 (≈ 13.1 µg/mL) | 100 (≈ 52.6 µg/mL) |  |  |  | 
7 | C[C@@H]1C[C@H](N(C)C)[C@@H](O)[C@H](OC2CCCCCCCC(O)CCCC2)O1 (stereo partly drawn) [Compound 8-C6OH-a, (2S,3R,4S,6R)-4-(dimethylamino)-2-(6-hydroxycyclotridecyloxy)-6-methyltetrahydro-2H-pyran-3-ol] | > 400 | > 400 |  | > 400 | > 400 | > 400 | > 400 | > 400 |  |  |  |  |  |  |  |  | > 400 |  | 
8 | C[C@@H]1C[C@H](N(C)C)[C@@H](O)[C@H](OC2CCCCCCCC(O)CCCC2)O1 (stereo partly drawn) [Compound 8-C6OH-b, (2S,3R,4S,6R)-4-(dimethylamino)-2-(6-hydroxycyclotridecyloxy)-6-methyltetrahydro-2H-pyran-3-ol] |  |  | 400 (≈ 149 µg/mL) |  |  |  |  |  | >400 | >400 | >400 | >400 | >400 | >400 | >400 |  |  |  | 
9 | CC1CC(N(C)C)C(O)C(OC2CCCCC2)O1 (stereo not drawn) [Compound 13, 2-(Cyclohexyloxy)-4-(dimethylamino)-6-methyltetrahydro-2H-pyran-3-ol] | > 400 | > 400 |  | > 400 | > 400 | > 400 | > 400 | > 400 |  |  |  |  |  |  |  | 0 | > 400 |  | 
10 | CC1CC(N(C)C)C(O)C(OC2CCCC3CCCCC32)O1 (stereo not drawn) [Compound 14, 2-(Decahydronaphthalen-1-yloxy)-4-(dimethylamino)-6-methyltetrahydro-2H-pyran-3-ol] | > 400 | > 400 |  | > 400 | > 400 | > 400 | > 400 | > 400 |  |  |  |  |  |  |  | 0 | > 400 |  | 
11 | CCCCC#CCOC1OC(C)CC(N(C)C)C1O (stereo not drawn) [Compound 16, 4-(Dimethylamino)-2-(hept-2-ynyloxy)-6-methyltetrahydro-2H-pyran-3-ol] |  |  |  |  |  |  |  |  |  |  |  |  |  |  |  | 0 |  |  | 
12 | C#CCCCCCCCCCOC1OC(C)CC(N(C)C)C1O (stereo not drawn) [Compound 18, 4-(dimethylamino)-6-methyl-2-(undec-10-ynyloxy)-tetrahydro-2H-pyran-3-ol] | > 400 | > 400 |  | > 400 | > 400 | > 400 | > 400 | 400 (≈ 130 µg/mL) |  |  |  |  |  |  |  |  | > 400 |  | 
13 | CN(C)CCCOC1CCCCCCCCCCCCCC1 [Compound 24, 3-(cyclopentadecyloxy)-N,N-dimethylpropan-1-amine] |  |  |  |  |  |  |  |  |  |  |  |  |  |  |  |  |  | improved compared to 12 | 
14 | OC1CCCCCCCCCCC1 [Cyclododecanol, reference compound] | > 400 | > 400 |  | > 400 | > 400 | > 400 | > 400 | > 400 |  |  |  |  |  |  |  |  | > 400 |  | unable to serve as a substrate
15 | OC1CCCCCCCCCCCCCC1 [Cyclopentadecanol, reference compound] | > 400 | > 400 |  | > 400 | > 400 | > 400 | > 400 | > 400 |  |  |  |  |  |  |  |  | > 400 |  | 
16 | OC1CCCCCCCCCCCC1 [Cyclotridecanol, reference compound] | > 400 | > 400 |  | > 400 | > 400 | > 400 | > 400 | > 400 |  |  |  |  |  |  |  |  | > 400 |  | 
17 | CC[C@H]1OC(=O)[C@H](C)[C@@H](O[C@H]2C[C@@](C)(OC)[C@@H](O)[C@H](C)O2)[C@H](C)[C@@H](O[C@@H]2O[C@H](C)C[C@H](N(C)C)[C@H]2O)[C@](C)(O)C[C@@H](C)C(=O)[C@H](C)[C@@H](O)[C@]1(C)O [Erythromycin, reference compound] | < 0.8 | < 0.8 |  | 25 (≈ 18.3 µg/mL) | < 0.8 | > 100 | < 0.8 | < 0.8 |  |  |  |  |  |  |  |  | 6.2 (≈ 4.55 µg/mL) |  | 
